The values that follow come from patent US6403633B2, “Heteroaryl amidines, methylamidines and guanidines, and use thereof as protease inhibitors” (3-Dimensional Pharmaceuticals, Inc., priority 1998, dated 2002).

Counter-ions that a name gives are not always drawn.

Holding throughout (format): biochemical
The target in one test is T1, Bovine α-chymotrypsin (Bos taurus, UniProt P00766).
T1 construct: purchased Sigma C4129
As to the kind of experiment: In vitro inhibition of purified enzymes, Ki determination: chymotrypsin. The settings on record: substrate N-succinyl-Ala-Ala-Pro-Phe-p-nitroanilide 14 μM, [Chymotrypsin]=2.7 nM, pH 7.5, 37° C. From the text:
(§1) Reagents: All buffer salts were obtained from Sigma Chemical Company (St. Louis, Mo.), and were of the highest purity available. The enzyme substrates, N-benzoyl-Phe-Val-Arg-p-nitroanilide (Sigma B7632), N-benzoyl-Ile-Glu-Gly-Arg-p-nitroanilide hydrochloride (Sigma B2291), N-p-tosyl-Gly-Pro-Lys-p-nitroanilide (Sigma T6140), N-succinyl-Ala-Ala-Pro-Phe-p-nitroanilide (Sigma S7388) and N-CBZ-Val-Gly-Arg-p-nitroanilide (Sigma C7271) were obtained from Sigma. N-Succinyl-Ala-Ala-Pro-Arg-p-nitroanilide (BACHEM L-1720) and N-succinyl-Ala-Ala-Pro-Val-p-nitroanilide (BACHEM L-1770) were obtained from BACHEM (King of Prussia, Pa).
(§2) Human α-thrombin, human factor Xa and human plasmin were obtained from Enzyme Research Laboratories (South Bend, Ind.). […] In general, substrate concentrations are lower than the experimentally determined value for Km. […]
(§3) In a typical Ki determination, into each well of a 96 well plate is pipetted 280 μL of substrate solution, 10 μL of test compound solution, and the plate allowed to thermally equilibrate at 37° C. in a Molecular Devices plate reader for >15 minutes. Reactions were initiated by the addition of a 10 μL aliquot of enzyme and the absorbance increase at 405 nm is recorded for 15 minutes. […] The data are fit to a linear regression, and the value of the slope of the line calculated. The inverse of the slope is the experimentally determined Ki value. […]

The target in a further test is T2, human factor Xa (Homo sapiens, UniProt P00742).
T2 construct: purchased Enzyme Research Laboratories
T2 sequence (P00742 235-488 limits assumed): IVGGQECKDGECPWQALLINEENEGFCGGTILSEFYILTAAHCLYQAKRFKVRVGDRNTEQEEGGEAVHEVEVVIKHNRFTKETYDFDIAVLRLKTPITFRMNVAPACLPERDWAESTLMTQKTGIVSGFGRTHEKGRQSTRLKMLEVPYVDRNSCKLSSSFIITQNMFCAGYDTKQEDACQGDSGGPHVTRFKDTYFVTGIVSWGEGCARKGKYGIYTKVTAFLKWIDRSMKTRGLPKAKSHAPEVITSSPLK
T2 sequence (P00742 41-179 partner limits assumed): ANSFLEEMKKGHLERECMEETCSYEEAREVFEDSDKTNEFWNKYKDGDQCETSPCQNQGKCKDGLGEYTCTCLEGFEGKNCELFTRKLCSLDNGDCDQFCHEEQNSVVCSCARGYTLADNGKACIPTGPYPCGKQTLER
As to the kind of experiment: In vitro inhibition of purified enzymes, Ki determination: Factor Xa. Conditions: substrate N-benzoyl-Ile-Glu-Gly-Arg-p-nitroanilide hydrochloride 51 μM, [FXa]=10 nM, pH 7.5, 37° C.
Excerpt: as §1, §2, §3

The target in the next test is T3, human plasmin (Homo sapiens, UniProt P00747).
T3 construct: purchased Enzyme Research Laboratories
T3 sequence (P00747 581-810 limits assumed): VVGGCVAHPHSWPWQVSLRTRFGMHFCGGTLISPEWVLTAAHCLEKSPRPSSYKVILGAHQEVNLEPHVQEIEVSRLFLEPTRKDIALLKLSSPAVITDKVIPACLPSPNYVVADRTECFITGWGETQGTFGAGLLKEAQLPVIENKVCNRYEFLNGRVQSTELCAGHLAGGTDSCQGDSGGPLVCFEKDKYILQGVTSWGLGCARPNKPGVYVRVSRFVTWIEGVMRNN
T3 sequence (P00747 97-580 partner limits assumed): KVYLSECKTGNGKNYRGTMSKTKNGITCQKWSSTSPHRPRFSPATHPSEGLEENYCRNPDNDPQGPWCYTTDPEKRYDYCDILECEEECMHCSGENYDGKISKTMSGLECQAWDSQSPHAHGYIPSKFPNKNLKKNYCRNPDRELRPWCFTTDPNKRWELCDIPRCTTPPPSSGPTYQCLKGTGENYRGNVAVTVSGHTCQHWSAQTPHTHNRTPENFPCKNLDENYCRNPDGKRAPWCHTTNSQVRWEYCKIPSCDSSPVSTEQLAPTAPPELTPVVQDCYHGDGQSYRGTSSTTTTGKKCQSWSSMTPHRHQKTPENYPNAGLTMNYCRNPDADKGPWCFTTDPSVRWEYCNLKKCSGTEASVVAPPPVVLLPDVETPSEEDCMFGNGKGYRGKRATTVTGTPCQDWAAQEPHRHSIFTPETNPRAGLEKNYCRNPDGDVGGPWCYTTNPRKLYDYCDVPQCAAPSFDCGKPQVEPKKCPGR
As to the kind of experiment: In vitro inhibition of purified enzymes, Ki determination: plasmin. Conditions: substrate N-p-Tosyl-Gly-Pro-Lys-p-nitroanilide 37 μM, [Plasmin]=8 nM, pH 7.5, 37° C.
Excerpt: as §1, §2, §3

The target in the next test is tPA (Homo sapiens, UniProt P00750). The experiment in a line: In vitro inhibition of purified enzymes, Ki determination: tPA. Conditions: no enzyme-specific conditions printed.
Chain of tPA (P00750 36-562, species assumed): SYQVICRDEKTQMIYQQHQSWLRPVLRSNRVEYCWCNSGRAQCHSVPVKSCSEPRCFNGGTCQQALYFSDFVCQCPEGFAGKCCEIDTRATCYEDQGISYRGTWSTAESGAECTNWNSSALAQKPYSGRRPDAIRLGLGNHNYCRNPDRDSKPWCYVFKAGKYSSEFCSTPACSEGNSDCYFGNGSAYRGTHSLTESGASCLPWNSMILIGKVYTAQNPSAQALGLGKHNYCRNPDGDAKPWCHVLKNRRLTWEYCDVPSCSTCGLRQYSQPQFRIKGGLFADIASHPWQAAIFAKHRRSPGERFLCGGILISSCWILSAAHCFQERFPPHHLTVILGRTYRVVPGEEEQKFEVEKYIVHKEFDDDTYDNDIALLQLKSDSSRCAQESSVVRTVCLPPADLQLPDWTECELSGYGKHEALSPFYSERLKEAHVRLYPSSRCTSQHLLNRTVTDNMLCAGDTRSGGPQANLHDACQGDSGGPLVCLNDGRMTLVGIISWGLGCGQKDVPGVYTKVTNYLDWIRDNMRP
Excerpt: (§4) Human α-thrombin, human factor Xa and human plasmin were obtained from Enzyme Research Laboratories (South Bend, Ind.). Bovine α-chymotrypsin (Sigma C4129), bovine trypsin (Sigma T8642) and human kidney cell urokinase (Sigma U5004) were obtained from Sigma. Human leukocyte elastase was obtained from Elastin Products (Pacific, Mo.). Ki Determinations: All assays are based on the ability of the test compound to inhibit the enzyme catalyzed hydrolysis of a peptide p-nitroanilide substrate. […] The final concentrations for each of the substrates is listed below. In general, substrate concentrations are lower than the experimentally determined value for Km. […]
as §3, with “The ratio of the velocity (rate of change in absorbance as a function of time) for a sample containing no test compound is divided by the velocity of a sample containing test compound, and is plotted as a function of test compound concentration. The” for “The”, “calculated.” for “calculated. The inverse of the slope is the experimentally determined Ki value.”

The target in a further test is T4, C1S (Homo sapiens, UniProt P09871).
T4 sequence (P09871 16-688): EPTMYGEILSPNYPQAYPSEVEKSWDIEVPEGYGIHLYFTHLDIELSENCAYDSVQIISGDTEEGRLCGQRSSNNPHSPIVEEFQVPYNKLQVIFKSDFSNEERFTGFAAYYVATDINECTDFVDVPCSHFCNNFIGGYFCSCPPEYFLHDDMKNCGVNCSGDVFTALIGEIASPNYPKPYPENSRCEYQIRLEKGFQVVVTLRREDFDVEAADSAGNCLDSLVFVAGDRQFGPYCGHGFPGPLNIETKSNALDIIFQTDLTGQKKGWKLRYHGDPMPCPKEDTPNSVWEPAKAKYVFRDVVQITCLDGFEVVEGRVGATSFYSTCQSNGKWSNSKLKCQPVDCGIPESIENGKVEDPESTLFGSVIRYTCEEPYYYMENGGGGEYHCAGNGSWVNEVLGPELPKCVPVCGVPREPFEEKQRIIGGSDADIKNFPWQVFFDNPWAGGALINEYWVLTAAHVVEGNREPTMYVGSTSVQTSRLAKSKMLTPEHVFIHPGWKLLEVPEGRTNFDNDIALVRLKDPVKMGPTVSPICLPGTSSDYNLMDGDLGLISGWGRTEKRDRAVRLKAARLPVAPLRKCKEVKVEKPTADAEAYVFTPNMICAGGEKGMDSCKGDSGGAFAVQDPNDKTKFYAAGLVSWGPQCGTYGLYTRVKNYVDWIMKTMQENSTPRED
As to the kind of experiment: In vitro inhibition of purified enzymes, Ki determination: C1S. Conditions: no enzyme-specific conditions printed.
Excerpt: as §4
as §3, with “The ratio of the velocity (rate of change in absorbance as a function of time) for a sample containing no test compound is divided by the velocity of a sample containing test compound, and is plotted as a function of test compound concentration. The” for “The”, “calculated.” for “calculated. The inverse of the slope is the experimentally determined Ki value.”

As for `CSc1sc(C(=N)N)cc1-c1nc(-c2ccc([N+](=O)[O-])cc2)cs1` [Example 11, 5-Methylthio-4-[4-(4-nitrophenyl)(1,3-thiazol-2-yl)]thiophene-2-carboxamidine hydrochloride], the Ki – broadly, a measure of affinity in units of concentration, obtained from inhibition or displacement – on Bovine α-chymotrypsin was 4.9 µM. In turn, `CSc1sc(C(N)=NC#N)cc1-c1nc(-c2ccccc2)cs1` [Example 94, 3-Amino-2-aza-3-[5-methylthio-4-(4-phenyl(1,3-thiazol-2-yl))(2-thienyl)]prop-2-enenitrile] displayed an inhibitory constant (Ki) on human factor Xa of 2.73 µM.

Compound `CSc1sc(C(=N)N)cc1-c1nc(-c2ccc3c(c2)OCCO3)cs1` [Example 12, 4-[4-(3,4-Ethylenedioxyphenyl)thiazol-2-yl]-5-methylthiothiophene-2-carboxamidine hydrochloride] returned an inhibition constant (Ki) on human plasmin of 7.31 µM. This counts as single-digit micromolar. The compound `CSc1sc(C(=N)N)cc1-c1nc(-c2sc3ccccc3c2Cl)cs1` [Example 119, 4-[4-(3-chlorobenzo[b]thiophen-2-yl)(1,3-thiazol-2-yl)]-5-methylthiothiophene-2-carboxamidine hydrochloride] registered a Ki at human factor Xa of 3 µM. As for `CSc1sc(C(=N)N)cc1-c1nc(-c2ccc(Cl)cc2)cs1` [Example 1, 4-[4-(4-chlorophenyl)(1,3-thiazol-2-yl)]-5-methylthiothiophene-2-carboxamidine], the affinity on tPA corresponds to a Ki of 9.49 µM.

On C1S, “4-[Bis(phenylsulfonyl)amino]-5-methylthiophene-2-carboxamidine [Example 283]” yielded an inhibitory constant (Ki) of 0.94 µM.
